Entries after “also recorded” stand apart in the source; their conditions may differ. Each block holds one compound with its values, some of them ahead of it.
Experiments:
[1] = system: LEC (lymphatic endothelium); assay: effect of 15-HETE on the cultured LEC; type: cell-based
Text: To decipher the role of 15-Lox lipid derived mediators, we studied the effect of 15-HETE on the cultured LEC. We identified a direct effect of 15 HETE on the lymphatic endothelium. It promoted Tcells adhesion to the lymphatic monolayer (data not shown), had no effect on LEC proliferation (data not shown), but stimulated their migration (data not shown).

lymphatic monolayer = conditions: literature reference 17; cited from earlier work
15-LOX = biological target: T1, 15-LOX (Mus musculus, UniProt P39654); assay: 15-LOX inhibitor in mouse model of lymphedema; type: in vivo; conditions: in presence of 15-LOX inhibitor
T1 construct: from tissue; host or cells: living C57BL/6J mice (lymphedematous limb)
T1 sequence (P39654 1-663): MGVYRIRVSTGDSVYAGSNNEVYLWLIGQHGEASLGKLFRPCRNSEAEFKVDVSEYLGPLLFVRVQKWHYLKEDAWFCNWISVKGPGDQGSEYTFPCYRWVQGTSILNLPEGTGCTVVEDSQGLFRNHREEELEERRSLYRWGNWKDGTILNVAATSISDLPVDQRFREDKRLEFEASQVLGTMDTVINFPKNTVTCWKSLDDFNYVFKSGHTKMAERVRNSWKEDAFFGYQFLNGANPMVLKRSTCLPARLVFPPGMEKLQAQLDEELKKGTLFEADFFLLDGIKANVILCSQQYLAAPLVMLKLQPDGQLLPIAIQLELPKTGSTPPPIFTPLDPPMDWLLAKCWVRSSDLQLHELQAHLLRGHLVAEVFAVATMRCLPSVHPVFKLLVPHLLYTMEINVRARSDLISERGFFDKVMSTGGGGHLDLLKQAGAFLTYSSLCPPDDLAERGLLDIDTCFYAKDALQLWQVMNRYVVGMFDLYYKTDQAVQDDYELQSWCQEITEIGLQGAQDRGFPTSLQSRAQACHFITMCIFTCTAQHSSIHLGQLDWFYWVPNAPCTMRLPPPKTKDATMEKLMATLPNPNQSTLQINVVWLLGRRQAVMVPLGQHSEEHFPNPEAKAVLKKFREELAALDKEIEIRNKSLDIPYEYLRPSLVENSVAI
Description: Mice were housed in individually ventilated cages in a temperature and light regulated room in a SPF facility and received food and water ad libitum. Female C57BL/6J (6 weeks old) were obtained from Janvier (Le Genest Saint Isle, France). Mouse model of lymphedema was performed as previously described (Morfoisse ATVB 2008).
To understand the molecular mechanisms underlying the inflammatory process in lymphedema, we performed a time course analysis of the adipose tissue in a mouse model of lymphedema (not shown). […] In early stages of LD (2 weeks post surgery), no significant difference in lipid content was observed (data not shown). In contrast, in acquired lymphedema (8 weeks post-surgery), we found similar pattern as those observed in human tissue samples (data not shown). In particular, we observed a decrease in AA-derived lipid mediators generated by 15-LOX (15-HETE) whereas no difference was found in lipids generated by DHA metabolism (17-HDOHE) (data not shown). After eight weeks of LD, we observed that changes in pro-resolvin content was associated with a decrease in 15-LOX mRNA and protein expression (data not shown). Importantly, the downregulation of 15-LOX was also observed in the lymphatic endothelium (data not shown).
To evaluate the role of 15-LOX in LD, we used the PD146176 pharmacological inhibitor. […] As we previously shown that Tcell populations were recruited during LD development, we next performed flow cytometry analysis. We observed in the presence of 15-LOX inhibitor an increase in CD4+ Tcells during LD associated with a decrease in Treg recruitment (data not shown). This was confirmed by a decrease of Tregs (Foxp3 positive cells) immunodetection in lymphedematous tissues (data not shown).

SMILES: CCCCC[C@H](O)/C=C/C=C\C/C=C\C/C=C\CCCC(=O)O [15-HETE, 15-hydroxyeicosatetraenoic acid]
deleterious effect / damages on the lymphatic endothelium ([1]; compared to 12-HETE): no deleterious effect; also recorded: did not cause lymphatic damages | LEC proliferation ([1]; cultured LEC): no effect

SMILES: CCCCC/C=C\C[C@H](O)/C=C/C=C\C/C=C\CCCC(=O)O [12-HETE]
effect on the lymphatic monolayer (lymphatic monolayer): generates holes in the lymphatic monolayer

Treg recruitment (15-LOX; flow cytometry): decrease | Tregs (Foxp3 positive cells) immunodetection in lymphedematous tissues (15-LOX): decrease | LD swelling (15-LOX; mouse model of lymphedema): increased | dermal backflow (15-LOX; mouse model of lymphedema): strong dermal backflow | dermal fibrosis (15-LOX; mouse model of lymphedema): associated with dermal fibrosis
SMILES: c1ccc2c(c1)SCc1c-2[nH]c2ccccc12 [PD146176]
CD4+ Tcells during LD (15-LOX; flow cytometry): increase

— patent publication US20250064899A1, “USE OF THE 15-LIPOXYGENASE FOR THE TREATMENT OF LYMPHEDEMA” (INSERM (INSTITUT NATIONAL DE LA SANTÉ ET DE LA RECHERCHE …, priority 2022, published 2025)
